In patent US11419801B2, “Personal care composition” (Conopco, Inc., priority 2017, dated 2022):

Tested on: IL-6
Test: Anti-inflammation efficacy in THP-1 in vitro assay: IL-6 in supernatant of PMA-differentiated, LPS-stimulated THP-1 monocytes (BD Elisa kit)
Assay type: cell-based
Conditions: for % of LPS (IL-6): DHA, concentration per example; for concentration of IL-6 as a % of that obtained for LPS (% of LPS): Table 1, LPS 1 μg/ml, 24 hours incubation, concentration of active(s) as given per example, lower = higher anti-inflammatory potential
Procedure: The following procedure was used to test the anti-inflammation efficacy of the various actives alone as well as in combination. In the examples, HR means hexyl resorcinol, DHA means docosahexaenoic acid. • (i) 5×10^5 THP-1 monocytes were placed into 24-well plates, with 100 nM […] in the culture media to differentiate the cells. • (ii) After 72 hours differentiation, treatments as follows were applied to the cells. […] (2) LPS-1 μg/ml; (3) Dex-50 nM; (4) DHA-200 μM; (5) DHA-100 μM; (6) DHA-20 μM; (7) HR-50 μM; (8) HR-25 μM; (9) HR-100 μM; […] (11) DHA-100 μM+HR-50 μM; (12) DHA-100 μM+HR-25 μM; (13) DHA-20 μM+HR-100 μM (14) DHA-20 μM+HR-10 μM. • (iii) After 24 hours incubation the supernatants were collected. • (iv) Then IL-6 concentration was tested in the supernatant by BD Elisa kit. The lower the percentage, the higher the anti-inflammatory potential. […] Further information about the experiment nos 12 to 24 is as follows: • Example 12: […] Combination of 50 μM DHA and 12.5 μM of HR. • Example 23: […] Combination of 50 μM DHA and 12.5 μM of ZnCl2. • Example 31: […] Combination of 12.5 μM DHA and 3.125 μM of ZnCl2. Experiments were carried out, according to the procedure described earlier, at various concentrations of DHA along with certain other actives outside the invention viz. BOP (benzoyl peroxide) and SDS (sodium dodecyl sulphate). These actives have been disclosed as additional ingredients in EP0138480 A1. The data below is expressed in % IL-6 inhibition rate in Table-3 below. • Example 33, 34, 35, 36: […] Combination of 50 μM DHA and 12.5 μM of BPO. • Example 43: […] Combination of 12.5 μM DHA and 3.125 μM of BPO. • Example 45, 46, 47, 48: […] Combination of 50 μM DHA and 12.5 μM of SDS. • Example 51: […] Combination of 12.5 μM DHA and 3.125 μM of SDS.

[1] = Table 2, LPS 1 μg/mL, HR, ZnCl2 alone and combined
[2] = Table 3, LPS 1 μg/mL, BPO, SDS alone and combined, sulphate
[3] = Table 3, LPS 1 μg/mL, BPO, SDS alone and combined

[Cl-].[Cl-].[Zn+2] [Example 27, Zinc chloride]
% of LPS (IL-6) [1]: 97.7%

CCCCCCCCCCCCOS(=O)(=O)[O-].[Na+] [Example 46, sodium dodecyl sulphate]
% of LPS (IL-6) [2]: 86.1%

O=C(OOC(=O)c1ccccc1)c1ccccc1 [Example 39, benzoyl peroxide]
% of LPS (IL-6) [3]: 102.7%

CCCCCCc1ccc(O)cc1O [Example 19, hexyl resorcinol]
% of LPS (IL-6) [1]: 60.3%

CCCCCCc1ccc(O)cc1O [Example 7, hexyl resorcinol]
concentration of IL-6 as a % of that obtained for LPS (% of LPS): 63.1%

[Cl-].[Cl-].[Zn+2] [Example 25, Zinc chloride]
% of LPS (IL-6) [1]: 93.4%

CCCCCCc1ccc(O)cc1O [Example 6, hexyl resorcinol]
concentration of IL-6 as a % of that obtained for LPS (% of LPS): 41.1%

O=C(OOC(=O)c1ccccc1)c1ccccc1 [Example 40, benzoyl peroxide]
% of LPS (IL-6) [3]: 95.1%

CCCCCCCCCCCCOS(=O)(=O)[O-].[Na+] [Example 47, sodium dodecyl sulphate]
% of LPS (IL-6) [2]: 81.3%

CC/C=C\C/C=C\C/C=C\C/C=C\C/C=C\C/C=C\CCC(=O)O [Example 2, docosahexaenoic acid]
concentration of IL-6 as a % of that obtained for LPS (% of LPS): 14.7%

CC/C=C\C/C=C\C/C=C\C/C=C\C/C=C\C/C=C\CCC(=O)O [Example 16, docosahexaenoic acid]
% of LPS (IL-6) [1]: 63.1%

CC/C=C\C/C=C\C/C=C\C/C=C\C/C=C\C/C=C\CCC(=O)O [Example 33, docosahexaenoic acid]
% of LPS (IL-6) [3]: 10.7%

CCCCCCc1ccc(O)cc1O [Example 20, hexyl resorcinol]
% of LPS (IL-6) [1]: 66.4%

CC/C=C\C/C=C\C/C=C\C/C=C\C/C=C\C/C=C\CCC(=O)O [Example 14, docosahexaenoic acid]
% of LPS (IL-6) [1]: 29.0%

O=C(OOC(=O)c1ccccc1)c1ccccc1 [Example 37, benzoyl peroxide]
% of LPS (IL-6) [3]: 103.4%

CC/C=C\C/C=C\C/C=C\C/C=C\C/C=C\C/C=C\CCC(=O)O [Example 15, docosahexaenoic acid]
% of LPS (IL-6) [1]: 48.8%

CC/C=C\C/C=C\C/C=C\C/C=C\C/C=C\C/C=C\CCC(=O)O [Example 36, docosahexaenoic acid]
% of LPS (IL-6) [3]: 72.0%

[Cl-].[Cl-].[Zn+2] [Example 28, Zinc chloride]
% of LPS (IL-6) [1]: 91.6%

CCCCCCCCCCCCOS(=O)(=O)[O-].[Na+] [Example 48, sodium dodecyl sulphate]
% of LPS (IL-6) [2]: 80.5%

CCCCCCCCCCCCOS(=O)(=O)[O-].[Na+] [Example 45, sodium dodecyl sulphate]
% of LPS (IL-6) [2]: 84.6%

CC/C=C\C/C=C\C/C=C\C/C=C\C/C=C\C/C=C\CCC(=O)O [Example 3, docosahexaenoic acid]
concentration of IL-6 as a % of that obtained for LPS (% of LPS): 58.5%

CCCCCCc1ccc(O)cc1O [Example 4, hexyl resorcinol]
concentration of IL-6 as a % of that obtained for LPS (% of LPS): 41.1%

CC/C=C\C/C=C\C/C=C\C/C=C\C/C=C\C/C=C\CCC(=O)O [Example 13, docosahexaenoic acid]
% of LPS (IL-6) [1]: 9.9%

[Cl-].[Cl-].[Zn+2] [Example 26, Zinc chloride]
% of LPS (IL-6) [1]: 96.3%

CCCCCCc1ccc(O)cc1O [Example 18, hexyl resorcinol]
% of LPS (IL-6) [1]: 55.4%

CC/C=C\C/C=C\C/C=C\C/C=C\C/C=C\C/C=C\CCC(=O)O [Example 34, docosahexaenoic acid]
% of LPS (IL-6) [3]: 36.0%

CCCCCCc1ccc(O)cc1O [Example 17, hexyl resorcinol]
% of LPS (IL-6) [1]: 43.0%

O=C(OOC(=O)c1ccccc1)c1ccccc1 [Example 38, benzoyl peroxide]
% of LPS (IL-6) [3]: 100.6%

CC/C=C\C/C=C\C/C=C\C/C=C\C/C=C\C/C=C\CCC(=O)O [Example 35, docosahexaenoic acid]
% of LPS (IL-6) [3]: 56.8%

CCCCCCc1ccc(O)cc1O [Example 5, hexyl resorcinol]
concentration of IL-6 as a % of that obtained for LPS (% of LPS): 54.5%
